According to ChEMBL document CHEMBL3885861, “Open TG-GATES”:

Species on record: Rattus norvegicus
Test: Open TG-GATES - Regimen: Single
Assay type: toxicity, organism-based, Sprague-Dawley
Parameters: regimen Single, gender Male, age 6 weeks
Conditions: in vivo, po, 1000 mg/kg, route gavage, dose level Middle; for APTT / Bas / Eos / Fbg / Hb / Ht / Lym / MCH / MCHC / MCV / Mono / Neu / PT / Plat / RBC / Ret / WBC: tissue Blood; for KIDNEY_L / KIDNEY_R / KIDNEY_TOTAL: tissue Kidney; for LIVER: tissue Liver; for A/G / ALP / ALT / AST / BUN / CRE / Ca / Cl / DBIL / GLC / IP / K / LDH / Na / PL / RALB / TBIL / TC / TG / TP / gamma-GTP: tissue Plasma

CC(=O)[C@@]1(O)CC[C@H]2[C@@H]3C=C(Cl)C4=CC(=O)CC[C@]4(C)[C@H]3CC[C@@]21C [CHLORMADINONE]
TERMINAL_BW (3 h): 226.2 g
APTT (3 h): 23.3 s
Bas (3 h): 0%
Eos (3 h): 1%
Fbg (3 h): 302 mg/dL
Hb (3 h): 12.9 g/dL
Ht (3 h): 40.2%
Lym (3 h): 75%
MCH (3 h): 21.2 pg
MCHC (3 h): 32.1%
MCV (3 h): 66.1 fL
Mono (3 h): 2.4%
Neu (3 h): 21.2%
PT (3 h): 15.8 s
Plat (3 h): 112.9 x10_4/uL
RBC (3 h): 608.8 x10_4/ul
Ret (3 h): 9.1%
WBC (3 h): 72.4 x10_2/uL
KIDNEY_L (3 h): 1 g
KIDNEY_R (3 h): 1.1 g
KIDNEY_TOTAL (3 h): 2.1 g
LIVER (3 h): 10.9 g
A/G (3 h): 1.3
ALP (3 h): 1451.2 IU/L
ALT (3 h): 38.8 IU/L
AST (3 h): 74 IU/L
BUN (3 h): 13.8 mg/dL
CRE (3 h): 0.1 mg/dL
Ca (3 h): 11.2 mg/dL
Cl (3 h): 104.6 meq/L
DBIL (3 h): 0 mg/dL
GLC (3 h): 176.4 mg/dL
IP (3 h): 8 mg/dL
K (3 h): 4.3 meq/L
LDH (3 h): 166.6 IU/L
Na (3 h): 141.6 meq/L
PL (3 h): 134.4 mg/dL
RALB (3 h): 3.1 g/dL
TBIL (3 h): 0.028 mg/dL
TC (3 h): 74.4 mg/dL
TG (3 h): 50 mg/dL
TP (3 h): 5.5 g/dL
gamma-GTP (3 h): 2 IU/L
TERMINAL_BW (6 h): 221.4 g
APTT (6 h): 23.3 s
Bas (6 h): 0%
Eos (6 h): 0.2%
Fbg (6 h): 300.8 mg/dL
Hb (6 h): 13 g/dL
Ht (6 h): 40.1%
Lym (6 h): 72.2%
MCH (6 h): 19.8 pg
MCHC (6 h): 32.5%
MCV (6 h): 61.1 fL
Mono (6 h): 1.6%
Neu (6 h): 25.2%
PT (6 h): 15.6 s
Plat (6 h): 119.2 x10_4/uL
RBC (6 h): 655.4 x10_4/ul
Ret (6 h): 8.1%
WBC (6 h): 56.2 x10_2/uL
KIDNEY_L (6 h): 1 g
KIDNEY_R (6 h): 1 g
KIDNEY_TOTAL (6 h): 2 g
LIVER (6 h): 10.3 g
A/G (6 h): 1.2
ALP (6 h): 1445.6 IU/L
ALT (6 h): 43 IU/L
AST (6 h): 73 IU/L
BUN (6 h): 13 mg/dL
CRE (6 h): 0.2 mg/dL
Ca (6 h): 10.8 mg/dL
Cl (6 h): 105.2 meq/L
DBIL (6 h): 0.002 mg/dL
GLC (6 h): 181.2 mg/dL
IP (6 h): 10.2 mg/dL
K (6 h): 4.6 meq/L
LDH (6 h): 143.6 IU/L
Na (6 h): 140.4 meq/L
PL (6 h): 138.2 mg/dL
RALB (6 h): 3.1 g/dL
TBIL (6 h): 0.04 mg/dL
TC (6 h): 81.6 mg/dL
TG (6 h): 27.6 mg/dL
TP (6 h): 5.6 g/dL
gamma-GTP (6 h): 1.6 IU/L
TERMINAL_BW (9 h): 211.4 g
APTT (9 h): 23.8 s
Bas (9 h): 0%
Eos (9 h): 0.2%
Fbg (9 h): 336.2 mg/dL
Hb (9 h): 13.3 g/dL
Ht (9 h): 41.7%
Lym (9 h): 72.4%
MCH (9 h): 20 pg
MCHC (9 h): 32%
MCV (9 h): 62.5 fL
Mono (9 h): 1%
Neu (9 h): 25.6%
PT (9 h): 15.4 s
Plat (9 h): 110.4 x10_4/uL
RBC (9 h): 667.4 x10_4/ul
Ret (9 h): 7.4%
WBC (9 h): 39.5 x10_2/uL
KIDNEY_L (9 h): 1 g
KIDNEY_R (9 h): 1 g
KIDNEY_TOTAL (9 h): 1.9 g
LIVER (9 h): 10.5 g
A/G (9 h): 1.2
ALP (9 h): 1398.6 IU/L
ALT (9 h): 40.2 IU/L
AST (9 h): 74.6 IU/L
BUN (9 h): 13 mg/dL
CRE (9 h): 0.1 mg/dL
Ca (9 h): 10.7 mg/dL
Cl (9 h): 106.2 meq/L
DBIL (9 h): 0.002 mg/dL
GLC (9 h): 188 mg/dL
IP (9 h): 9.1 mg/dL
K (9 h): 4.3 meq/L
LDH (9 h): 157.2 IU/L
Na (9 h): 141.2 meq/L
PL (9 h): 156.2 mg/dL
RALB (9 h): 3.2 g/dL
TBIL (9 h): 0.024 mg/dL
TC (9 h): 84.4 mg/dL
TG (9 h): 81.2 mg/dL
TP (9 h): 5.7 g/dL
gamma-GTP (9 h): 1.2 IU/L
TERMINAL_BW (24 h): 231.1 g
APTT (24 h): 24.4 s
Bas (24 h): 0%
Eos (24 h): 1%
Fbg (24 h): 333.6 mg/dL
Hb (24 h): 13.2 g/dL
Ht (24 h): 40.6%
Lym (24 h): 77.8%
MCH (24 h): 20.5 pg
MCHC (24 h): 32.6%
MCV (24 h): 63 fL
Mono (24 h): 2.2%
Neu (24 h): 18.6%
PT (24 h): 15.5 s
Plat (24 h): 125.6 x10_4/uL
RBC (24 h): 644.6 x10_4/ul
Ret (24 h): 7.9%
WBC (24 h): 130.2 x10_2/uL
KIDNEY_L (24 h): 1 g
KIDNEY_R (24 h): 1.1 g
KIDNEY_TOTAL (24 h): 2.1 g
LIVER (24 h): 12.1 g
A/G (24 h): 1.2
ALP (24 h): 1702.6 IU/L
ALT (24 h): 45.8 IU/L
AST (24 h): 70.8 IU/L
BUN (24 h): 17.8 mg/dL
CRE (24 h): 0.2 mg/dL
Ca (24 h): 11.1 mg/dL
Cl (24 h): 105.8 meq/L
DBIL (24 h): 0 mg/dL
GLC (24 h): 193.4 mg/dL
IP (24 h): 7.8 mg/dL
K (24 h): 4.5 meq/L
LDH (24 h): 184.2 IU/L
Na (24 h): 140.8 meq/L
PL (24 h): 168 mg/dL
RALB (24 h): 3.3 g/dL
TBIL (24 h): 0 mg/dL
TC (24 h): 77.2 mg/dL
TG (24 h): 188.8 mg/dL
TP (24 h): 5.9 g/dL
gamma-GTP (24 h): 1.6 IU/L
